According to patent US20240343722A1 (VIFOR (INTERNATIONAL) AG, priority 2021, published 2024):

target: T1, ferroportin (Fpn) (Mus musculus, UniProt Q9JHI9); test: Hepcidin Internalization Assay (J774); assay type: cell-based; details: Average (AVE) IC50 of multiple measurements; inhibition of TMR-hepcidin (25 nM) internalization into J774 cells
T1 construct: endogenous in cells; host or cells: J774 mouse macrophage cell line, induced with Fe(III)NTA
T1 sequence (Q9JHI9 1-570): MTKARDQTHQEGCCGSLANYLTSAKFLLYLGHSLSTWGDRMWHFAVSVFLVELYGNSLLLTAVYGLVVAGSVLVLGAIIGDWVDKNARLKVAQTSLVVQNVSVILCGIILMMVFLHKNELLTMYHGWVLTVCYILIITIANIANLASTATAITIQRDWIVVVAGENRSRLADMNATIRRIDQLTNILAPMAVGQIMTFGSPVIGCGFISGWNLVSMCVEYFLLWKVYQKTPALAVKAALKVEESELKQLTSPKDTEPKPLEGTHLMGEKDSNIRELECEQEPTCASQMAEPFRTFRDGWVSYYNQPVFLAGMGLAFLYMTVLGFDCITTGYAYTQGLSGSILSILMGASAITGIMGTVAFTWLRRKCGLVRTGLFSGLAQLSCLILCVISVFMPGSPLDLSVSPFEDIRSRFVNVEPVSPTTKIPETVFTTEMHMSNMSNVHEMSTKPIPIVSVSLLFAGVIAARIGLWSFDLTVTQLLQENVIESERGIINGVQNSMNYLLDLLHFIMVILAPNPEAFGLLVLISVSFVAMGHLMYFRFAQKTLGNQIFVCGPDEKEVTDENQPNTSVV
Excerpt: This cellular assay allows quantification of the binding of hepcidin to ferroportin (Fpn) through microscopic detection of internalization of a fluorescently labeled hepcidin into J774 cells. […] Binding of hepcidin to Fpn triggers internalization and degradation of both hepcidin and Fpn. […] Therefore, microscopic detection of cell-associated TMR fluorescence is a measure of hepcidin binding to Fpn and internalization of hepcidin and Fpn. If TMR-hepcidin is prevented from binding to Fpn, cellular TMR fluorescence remains low (Durrenberger et al, 2013). The effect of small molecular weight Fpn inhibitor compounds in this assay was evaluated in vitro as described below. […] After removal of the paraformaldehyde solution, cells were washed 3 times with PBS leaving 100 μl per well and the plates were sealed with foil plate seal. TMR (530-550 nm excitation/575-625 nm emission/400 ms exposure time) and Hoechst 33342 (360-370 nm excitation/420-460 nm emission /10 ms exposure time) fluorescence images were acquired using a […] imager (Olympus) with a 20× high NA objective. […] The acquired image data was analysed with the […] analysis software. […] IC50 values were calculated with the Sum(Mean) raw data using “log(inhibitor) vs. response” curve fitting of Prism 5 software (GraphPad Software Inc., version 5.02). For each data set the fit of the “log(inhibitor) vs. response (three parameters)” model was compared to the fit of the “log(inhibitor) vs. response - Variable slope (four parameters)” model and the IC50 data of the preferred model was used.

IC50 [nM] | Structure (SMILES)
4 | COCCn1c(CCNCCc2nc(C(=O)NCc3ncccc3F)co2)nc2ccccc21 [Example 1, N-((3-fluoropyridin-2-yl)methyl)-2-(2-((2-(1-(2-methoxyethyl)-1 H-benzo[d]imidazol-2-yl)ethyl)amino)ethyl)oxazole-4-carboxamide]
1 | CCCCn1c(CCNCCc2nc(C(=O)NCc3ncccc3F)co2)nc2ccccc21 [Example 2, 2-(2-((2-(1-butyl-1 H-benzo[d]imidazol-2-yl)ethyl)amino)ethyl)-N-((3-fluoropyridin-2-yl)methyl)oxazole-4-carboxamide]
2 | O=C(NCc1ncccc1F)c1coc(CCNCCc2nc3ccccc3n2Cc2ccccn2)n1 [Example 3, N-((3-fluoropyridin-2-yl)methyl)-2-(2-((2-(1-(pyridin-2-ylmethyl)-1H-benzo[d]imidazol-2-yl)ethyl)amino)ethyl)oxazole-4-carboxamide]
7 | Cn1c(CCNCCc2nc(C(=O)NCc3ncccc3F)co2)nc2ccccc21 [Example 5, N-((3-fluoropyridin-2-yl)methyl)-2-(2-((2-(1-methyl-1 H-benzo[d]imidazol-2-yl)ethyl)amino)ethyl)oxazole-4-carboxamide]
3.6 | CCn1c(CCNCCc2nc(C(=O)NCc3ncccc3F)co2)nc2ccccc21 [Example 6, 2-(2-((2-(1-ethyl-1 H-benzo[d]imidazol-2-yl)ethyl)amino)ethyl)-N-((3-fluoropyridin-2-yl)methyl)oxazole-4-carboxamide]
1.2 | CC(C)Cn1c(CCNCCc2nc(C(=O)NCc3ncccc3F)co2)nc2ccccc21 [Example 8, N-((3-fluoropyridin-2-yl)methyl)-2-(2-((2-(1-isobutyl-1 H-benzo[d]imidazol-2-yl)ethyl)amino)ethyl)oxazole-4-carboxamide]
1 | CCCCn1c(CCNCCc2nc(C(=O)NCc3ncccc3Cl)co2)nc2ccccc21 [Example 9, 2-(2-((2-(1-butyl-1 H-benzo[d]imidazol-2-yl)ethyl)amino)ethyl)-N-((3-chloropyridin-2-yl)methyl)oxazole-4-carboxamide]
2 | CCCCn1c(CCNCCc2nc(C(=O)NCc3ccccn3)co2)nc2ccccc21 [Example 11, 2-(2-((2-(1-butyl-1 H-benzo[d]imidazol-2-yl)ethyl)amino)ethyl)-N-(pyridin-2-ylmethyl)oxazole-4-carboxamide]
126 | O=C(O)Cn1c(CCNCCc2nc(C(=O)NCc3ncccc3F)co2)nc2ccccc21 [Example 14, 2-(2-(2-((2-(4-(((3-fluoropyridin-2-yl)methyl)carbamoyl)oxazol-2-yl)ethyl)amino)ethyl)-1H-benzo[d]imidazol-1-yl)acetic acid]
32 | CNC(=O)Cn1c(CCNCCc2nc(C(=O)NCc3ncccc3F)co2)nc2ccccc21 [Example 15, N-((3-fluoropyridin-2-yl)methyl)-2-(2-((2-(1-(2-(methylamino)-2-oxoethyl)-1 H-benzo[d]imidazol-2-yl)ethyl)amino)ethyl)oxazole-4-carboxamide]
181 | NC(=O)Cn1c(CCNCCc2nc(C(=O)NCc3ncccc3F)co2)nc2ccccc21 [Example 16, 2-(2-((2-(1-(2-amino-2-oxoethyl)-1H-benzo[d]imidazol-2-yl)ethyl)amino)ethyl)-N-((3-fluoropyridin-2-yl)methyl)oxazole-4-carboxamide]
0.8 | O=C(NCc1ncccc1F)c1coc(CCNCCc2nc3ccccc3n2Cc2ccccc2)n1 [Example 17, 2-(2-((2-(1-benzyl-1 H-benzo[d]imidazol-2-yl)ethyl)amino)ethyl)-N-((3-fluoropyridin-2-yl)methyl)oxazole-4-carboxamide]
1 | O=C(NCc1ncccc1F)c1coc(CCNCCc2nc3ccccc3n2CCC2CC2)n1 [Example 21, 2-(2-((2-(1-(2-cyclopropylethyl)-1 H-benzo[d]imidazol-2-yl)ethyl)amino)ethyl)-N-((3-fluoropyridin-2-yl)methyl)oxazole-4-carboxamide]
1.9 | O=C(NCc1ncccc1F)c1coc(CCNCCc2nc3ccccc3n2CCc2ccccc2)n1 [Example 23, N-((3-fluoropyridin-2-yl)methyl)-2-(2-((2-(1-phenethyl-1 H-benzo[d]imidazol-2-yl)ethyl)amino)ethyl)oxazole-4-carboxamide]
7 | CNC(=O)CCn1c(CCNCCc2nc(C(=O)NCc3ncccc3F)co2)nc2ccccc21 [Example 25, N-((3-fluoropyridin-2-yl)methyl)-2-(2-((2-(1-(3-(methylamino)-3-oxopropyl)-1 H-benzo[d]imidazol-2-yl)ethyl)amino)ethyl)oxazole-4-carboxamide]
1.3 | Cc1noc(C)c1CCn1c(CCNCCc2nc(C(=O)NCc3ncccc3F)co2)nc2ccccc21 [Example 30, 2-(2-((2-(1-(2-(3,5-dimethylisoxazol-4-yl)ethyl)-1 H-benzo[d]imidazol-2-yl)ethyl)amino)ethyl)-N-((3-fluoropyridin-2-yl)methyl)oxazole-4-carboxamide]
2.8 | O=C(NCc1ncccc1F)c1coc(CCNCCc2nc3ccccc3n2CCc2ncco2)n1 [Example 31, N-((3-fluoropyridin-2-yl)methyl)-2-(2-((2-(1-(2-(oxazol-2-yl)ethyl)-1 H-benzo[d]imidazol-2-yl)ethyl)amino)ethyl)oxazole-4-carboxamide]
7.4 | Cn1ccnc1CCn1c(CCNCCc2nc(C(=O)NCc3ncccc3F)co2)nc2ccccc21 [Example 34, N-((3-fluoropyridin-2-yl)methyl)-2-(2-((2-(1-(2-(1-methyl-1 H-imidazol-2-yl)ethyl)-1 H-benzo[d]imidazol-2-yl)ethyl)amino)ethyl)oxazole-4-carboxamide]
2 | O=C(NCc1ncccc1F)c1coc(CCNCCc2nc3ccccc3n2CCc2ccccn2)n1 [Example 35, N-((3-fluoropyridin-2-yl)methyl)-2-(2-((2-(1-(2-(pyridin-2-yl)ethyl)-1H-benzo[d]imidazol-2-yl)ethyl)amino)ethyl)oxazole-4-carboxamide]
0.9 | CCCCn1c(CCNCCc2nc(C(=O)NCc3ncccc3F)co2)nc2cc3c(cc21)OCCO3 [Example 37, 2-(2-((2-(1-butyl-6,7-dihydro-1H-[1,4]dioxino[2′,3′:4,5]benzo[1,2-d]imidazol-2-yl)ethyl)amino)ethyl)-N-((3-fluoropyridin-2-yl)methyl)oxazole-4-carboxamide]
1.7 | CCCCn1c(CCNCCc2nc(C(=O)NCc3ncccc3F)co2)nc2cc(-c3ccccc3OC)ccc21 [Example 39, 2-(2-((2-(1-butyl-5-(2-methoxyphenyl)-1 H-benzo[d]imidazol-2-yl)ethyl)amino)ethyl)-N-((3-fluoropyridin-2-yl)methyl)oxazole-4-carboxamide]
1.8 | CCCCn1c(CCNCCc2nc(C(=O)NCc3ncccc3F)co2)nc2ccc(-c3ccccc3OC)cc21 [Example 40, 2-(2-((2-(1-butyl-6-(2-methoxyphenyl)-1 H-benzo[d]imidazol-2-yl)ethyl)amino)ethyl)-N-((3-fluoropyridin-2-yl)methyl)oxazole-4-carboxamide]
4 | CCCCn1c(CCNCCc2nc(C(=O)NCc3ncccc3F)co2)nc2ccc(-c3ccccc3)cc21 [Example 41, 2-(2-((2-(1-butyl-6-phenyl-1 H-benzo[d]imidazol-2-yl)ethyl)amino)ethyl)-N-((3-fluoropyridin-2-yl)methyl)oxazole-4-carboxamide]
2.4 | CCCCn1c(CCNCCc2nc(C(=O)NCc3ncccc3F)co2)nc2cc(-c3ccccc3)ccc21 [Example 42, 2-(2-((2-(1-butyl-5-phenyl-1 H-benzo[d]imidazol-2-yl)ethyl)amino)ethyl)-N-((3-fluoropyridin-2-yl)methyl)oxazole-4-carboxamide]
1 | O=C(NCc1ncccc1F)c1coc(CCNCCc2nc3ccccc3n2CCc2nc3ccccc3[nH]2)n1 [Example 44, 2-(2-((2-(1-(2-(1H-benzo[d]imidazol-2-yl)ethyl)-1 H-benzo[d]imidazol-2-yl)ethyl)amino)ethyl)-N-((3-fluoropyridin-2-yl)methyl)oxazole-4-carboxamide]
